Results published in ChEMBL document CHEMBL1667853, “Design and synthesis of potent Gram-negative specific LpxC inhibitors” (Bioorg Med Chem Lett, 2011).
pIC50, pKi: −log10 of the molar value. Converted amounts (≈) assume the structure as drawn.

Legend:
[1] = biological target: T1, UDP-3-O-acyl-N-acetylglucosamine deacetylase (Escherichia coli K-12, UniProt P0A725); experiment: Inhibition of Escherichia coli LpxC
T1 sequence (P0A725 whole entry): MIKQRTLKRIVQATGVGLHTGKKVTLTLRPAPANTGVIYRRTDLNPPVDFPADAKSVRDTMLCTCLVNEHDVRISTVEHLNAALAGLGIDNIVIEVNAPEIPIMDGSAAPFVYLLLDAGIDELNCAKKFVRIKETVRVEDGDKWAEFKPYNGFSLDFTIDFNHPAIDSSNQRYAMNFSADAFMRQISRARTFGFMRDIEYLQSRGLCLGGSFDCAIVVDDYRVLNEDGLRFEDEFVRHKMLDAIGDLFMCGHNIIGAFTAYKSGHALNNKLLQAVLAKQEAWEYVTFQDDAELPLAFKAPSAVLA

[2] = tested on: Escherichia coli; experiment: Antimicrobial activity against Escherichia coli HS294 by broth dilution assay; format: functional
[3] = tested on: Escherichia coli; experiment: Antimicrobial activity against Escherichia coli ATCC 25922 by broth dilution assay; format: functional
[4] = tested on: Escherichia coli; experiment: Antimicrobial activity against multidrug-resistant Escherichia coli by broth dilution assay; format: functional
[5] = tested on: Pseudomonas aeruginosa; experiment: Antimicrobial activity against wild type Pseudomonas aeruginosa by broth dilution assay; format: functional
[6] = tested on: Pseudomonas aeruginosa; experiment: Antimicrobial activity against multidrug-resistant Pseudomonas aeruginosa by broth dilution assay; format: functional
[7] = tested on: Escherichia coli; experiment: Antimicrobial activity against wild type Escherichia coli by broth dilution assay; format: functional
[8] = tested on: Klebsiella pneumoniae; experiment: Antimicrobial activity against wild type Klebsiella pneumoniae by broth dilution assay; format: functional
[9] = tested on: Stenotrophomonas maltophilia; experiment: Antimicrobial activity against wild type Stenotrophomonas maltophilia by broth dilution assay; format: functional

SMILES | pIC50 [1] | MIC [2] [µg/mL] | MIC [3] [µg/mL] | also measured
CCCc1cc(C2=N[C@@H](C(=O)NO)CO2)cc(OC)c1OC |  |  |  | pKi [1]: 7.30
CCCCCCCCCCCCCC(=O)O[C@@H]1[C@@H](CC(=O)NO)CO[C@H](CO)[C@H]1O |  |  |  | pKi [1]: 6.19
C[C@@H](O)[C@H](C(=O)NO)N1Cc2cc(C#Cc3ccccc3)ccc2C1=O | 6.89 |  |  | 
C[C@@H](O)[C@H](C(=O)NO)n1[nH]c2cc(C#Cc3ccccc3)ccc2c1=O | 6.70 |  |  | 
C[C@@H](O)[C@H](C(=O)NO)N1Cc2cc(Br)ccc2C1=O | < 4.21 |  |  | 
C[C@@H](O)[C@H](C(=O)NO)N1Cc2cc(-c3ccccc3)ccc2C1=O | 4.39 |  |  | 
C[C@@H](O)[C@H](C(=O)NO)N1Cc2ccc(C#Cc3ccccc3)cc2C1=O | 4.47 |  |  | 
C[C@@H](O)[C@H](C(=O)NO)N1Cc2cc(-c3ccc(-c4ccccc4)cc3)ccc2C1=O | 7.30 |  |  | 
C[C@@H](O)[C@H](C(=O)NO)N1Cc2cc(-c3ccc(C#Cc4ccccc4)cc3)ccc2C1=O | 7.54 |  |  | 
C[C@@H](O)[C@H](C(=O)NO)N1Cc2cc(C#Cc3ccc(-c4ccccc4)cc3)ccc2C1=O | 7.89 |  |  | 
C[C@@H](O)[C@H](C(=O)NO)N1Cc2cc(C#Cc3cccc(-c4ccccc4)c3)ccc2C1=O | 6.01 |  |  | 
C[C@@H](O)[C@@H](NC(=O)NCc1ccc(C#Cc2ccccc2)cc1)C(=O)NO | 6.70 | 12.5 (≈ 34 µM) | > 100 | 
C[C@@H](O)[C@@H](NC(=O)NCCc1ccc(C#Cc2ccccc2)cc1)C(=O)NO | 5.90 | 50 (≈ 131 µM) | > 100 | 
C[C@@H](O)[C@@H](NC(=O)N1CCC(c2ccc(C#Cc3ccccc3)cc2)C1)C(=O)NO (stereo not given in full) | 7.44 | 12.5 (≈ 30.7 µM) | 100 (≈ 245 µM) | 
C[C@@H](O)[C@@H](NC(=O)N1CCC(c2cccc(C#Cc3ccccc3)c2)C1)C(=O)NO (stereo not given in full) | 6.83 | 1.56 (≈ 3.83 µM) | 100 (≈ 245 µM) | 
C[C@@H](O)[C@@H](NC(=O)N1CCCC(c2ccc(C#Cc3ccccc3)cc2)C1)C(=O)NO (stereo not given in full) | 6.41 | 25 (≈ 59.3 µM) | > 100 | 
C[C@@H](O)[C@@H](NC(=O)N1CCC(c2ccc(C#Cc3ccccc3)cc2)CC1)C(=O)NO |  | 0.8 (≈ 1.9 µM) | 12.5 (≈ 29.7 µM) | 
C[C@@H](O)[C@@H](NC(=O)N1CCN(c2ccc(C#Cc3ccccc3)cc2)CC1)C(=O)NO | 8.62 | 0.2 (≈ 0.473 µM) | 1.56 (≈ 3.69 µM) | 
C[C@@H](O)[C@@H](NC(=O)N1CCN(c2ccc(-c3ccccc3)cc2)CC1)C(=O)NO | 8.25 | 0.8 (≈ 2.01 µM) | 3.13 (≈ 7.86 µM) | 
C[C@@H](O)[C@@H](NC(=O)N1CCC(c2ccccc2)CC1)C(=O)NO | 5.40 | 12.5 (≈ 38.9 µM) |  | 
C[C@@H](O)[C@@H](NC(=O)N1CCC(C#Cc2ccccc2)CC1)C(=O)NO | 6.68 | 3.13 (≈ 9.06 µM) | 25 (≈ 72.4 µM) | 
C[C@@H](O)[C@@H](NC(=O)N1CCN(c2ccc(C#Cc3ccccn3)cc2)CC1)C(=O)NO | 8.00 | 6.25 (≈ 14.8 µM) | > 100 | 
C[C@@H](O)[C@@H](NC(=O)N1CCN(c2ccc(C#Cc3cccnc3)cc2)CC1)C(=O)NO | 7.20 | 12.5 (≈ 29.5 µM) | 100 (≈ 236 µM) | 

SMILES | pIC50 [1] | MIC [2] [µg/mL] | MIC [3] [µg/mL] | also measured
C[C@@H](O)[C@@H](NC(=O)N1CCN(c2ccc(C#Cc3ccncc3)cc2)CC1)C(=O)NO | 8.40 | 0.8 (≈ 1.89 µM) | 3.13 (≈ 7.39 µM) | 
C[C@@H](O)[C@@H](NC(=O)N1CCN(c2ccc(C#Cc3cccs3)cc2)CC1)C(=O)NO | 7.68 | 1.56 (≈ 3.64 µM) | 25 (≈ 58.3 µM) | 
C[C@@H](O)[C@@H](NC(=O)N1CCN(c2ccc(C#Cc3cnccn3)cc2)CC1)C(=O)NO | 6.87 | 6.25 (≈ 14.7 µM) | > 100 | 
C[C@@H](O)[C@@H](NC(=O)N1CCN(c2ccc(-c3cncs3)cc2)CC1)C(=O)NO | 7.92 | 3.13 (≈ 7.72 µM) | 100 (≈ 247 µM) | 
C[C@@H](O)[C@@H](NC(=O)N1CCN(c2ccc(-c3ccc(N4CCOCC4)cc3)cc2)CC1)C(=O)NO | 7.79 | 3.13 (≈ 6.47 µM) | 6.25 (≈ 12.9 µM) | 
C[C@@H](O)[C@@H](NC(=O)N1CCN(c2ccc(C#Cc3ccc(O)cc3)cc2)CC1)C(=O)NO | 8.40 | 0.1 (≈ 0.228 µM) | 1.56 (≈ 3.56 µM) | 
C[C@@H](O)[C@@H](NC(=O)N1CCN(c2ccc(C#Cc3ccc(N)cc3)cc2)CC1)C(=O)NO | 7.59 | 1.56 (≈ 3.57 µM) | 3.13 (≈ 7.15 µM) | 
C[C@@H](O)[C@@H](NC(=O)N1CCN(c2ccc(C#Cc3ccc(Cl)cc3)cc2)CC1)C(=O)NO | 8.30 | 1.56 (≈ 3.41 µM) | 6.25 (≈ 13.7 µM) | 
C[C@@H](O)[C@@H](NC(=O)N1CCN(c2ccc(C#Cc3ccc(F)cc3)cc2)CC1)C(=O)NO | 8.15 | 0.8 (≈ 1.82 µM) | 3.13 (≈ 7.11 µM) | 
C[C@@H](O)[C@@H](NC(=O)N1CCN(c2ccc(C#Cc3ccc(C(F)(F)F)cc3)cc2)CC1)C(=O)NO | 7.98 | 1.56 (≈ 3.18 µM) | 12.5 (≈ 25.5 µM) | 
C[C@@H](O)[C@@H](NC(=O)N1CCN(c2ccc(C#Cc3ccc(CC#N)cc3)cc2)CC1)C(=O)NO | 7.96 | 0.8 (≈ 1.73 µM) | 6.25 (≈ 13.5 µM) | 
C[C@@H](O)[C@@H](NC(=O)N1CCN(c2ccc(C#Cc3ccc(CO)cc3)cc2)CC1)C(=O)NO | 7.92 | 0.4 (≈ 0.884 µM) | 12.5 (≈ 27.6 µM) | 
C[C@@H](O)[C@@H](NC(=O)N1CCN(c2ccc(C#Cc3ccc(CN4CCOCC4)cc3)cc2)CC1)C(=O)NO | 7.85 | 1.56 (≈ 2.99 µM) | 6.25 (≈ 12 µM) | 
C[C@@H](O)[C@@H](NC(=O)N1CCN(c2ccc(C#Cc3ccc(N4CCOCC4)cc3)cc2)CC1)C(=O)NO | 8.52 | 0.1 (≈ 0.197 µM) | 25 (≈ 49.3 µM) | 
C[C@@H](O)[C@@H](NC(=O)N1CCN(c2ccc(C#Cc3ccc(N4CCNCC4)cc3)cc2)CC1)C(=O)NO | 7.63 | 0.4 (≈ 0.79 µM) | 6.25 (≈ 12.3 µM) | 
CC(C)(O)[C@@H](NC(=O)N1CCC(c2ccc(-c3ccccc3)cc2)CC1)C(=O)NO | 8.60 | 0.2 (≈ 0.486 µM) | 0.8 (≈ 1.94 µM) | 
CC(C)(O)[C@@H](NC(=O)N1CCN(c2ccc(-c3ccccc3)cc2)CC1)C(=O)NO | 8.15 | 0.8 (≈ 1.94 µM) | 3.13 (≈ 7.59 µM) | 
NC[C@@H](NC(=O)N1CCC(c2ccc(C#Cc3ccccc3)cc2)CC1)C(=O)NO | 6.79 | 6.25 (≈ 15.4 µM) | 12.5 (≈ 30.8 µM) | 
CC[C@H]1OC(=O)[C@H](C)[C@@H](O[C@H]2C[C@@](C)(OC)[C@@H](O)[C@H](C)O2)[C@H](C)[C@@H](O[C@@H]2O[C@H](C)C[C@H](N(C)C)[C@H]2O)[C@](C)(O)C[C@@H](C)CN(C)[C@H](C)[C@@H](O)[C@]1(C)O [AZITHROMYCIN] |  |  |  | MIC [4]: 32 µg/mL (≈ 42.7 µM); MIC [5]: 4 µg/mL (≈ 5.34 µM); MIC [6]: 32 µg/mL (≈ 42.7 µM)
O=C(N[C@H](CO)[C@H](O)c1ccc([N+](=O)[O-])cc1)C(Cl)Cl [CHLORAMPHENICOL] |  |  |  | MIC [7]: 2 µg/mL (≈ 6.19 µM); MIC [4]: > 32 µg/mL; MIC [5]: 2 µg/mL (≈ 6.19 µM); MIC [6]: > 256 µg/mL
O=C(O)c1cn(C2CC2)c2cc(N3CCNCC3)c(F)cc2c1=O [CIPROFLOXACIN] |  |  |  | MIC [4]: > 32 µg/mL; MIC [5]: 0.012 µg/mL (≈ 0.0362 µM); MIC [6]: > 8 µg/mL; MIC [8]: 1 µg/mL (≈ 3.02 µM); MIC [9]: 0.016 µg/mL (≈ 0.0483 µM)
CN(C)[C@@H]1C(O)=C(C(N)=O)C(=O)[C@@]2(O)C(O)=C3C(=O)c4c(O)cccc4[C@@](C)(O)[C@H]3C[C@@H]12 [TETRACYCLINE] |  |  |  | MIC [7]: 1 µg/mL (≈ 2.25 µM); MIC [4]: > 2 µg/mL; MIC [5]: 1 µg/mL (≈ 2.25 µM); MIC [6]: 16 µg/mL (≈ 36 µM)
